In ChEMBL document CHEMBL5653631, “A Potent and Selective ULK1 Inhibitor Suppresses Autophagy and Sensitizes Cancer Cells to Nutrient Stress” (iScience, 2018):

Legend:
[1] = biological target: Proto-oncogene tyrosine-protein kinase Src (Homo sapiens) (UniProt P12931); test: Inhibition of human recombinant SRC at 500 nM in presence of ATP by radiometric assay relative to control
[2] = biological target: Wee1-like protein kinase (Homo sapiens) (UniProt P30291); test: Inhibition of human recombinant Wee1 at 500 nM in presence of ATP by radiometric assay relative to control
[3] = biological target: MAP kinase-activated protein kinase 3 (Homo sapiens) (UniProt Q16644); test: Inhibition of human recombinant MAPKAPK3 at 500 nM related to control ULK1
[4] = biological target: T1, Mitogen-activated protein kinase 12 (Homo sapiens) (UniProt P53778); test: Inhibition of human recombinant p38gamma at 500 nM related to control ULK1
T1 sequence (whole entry): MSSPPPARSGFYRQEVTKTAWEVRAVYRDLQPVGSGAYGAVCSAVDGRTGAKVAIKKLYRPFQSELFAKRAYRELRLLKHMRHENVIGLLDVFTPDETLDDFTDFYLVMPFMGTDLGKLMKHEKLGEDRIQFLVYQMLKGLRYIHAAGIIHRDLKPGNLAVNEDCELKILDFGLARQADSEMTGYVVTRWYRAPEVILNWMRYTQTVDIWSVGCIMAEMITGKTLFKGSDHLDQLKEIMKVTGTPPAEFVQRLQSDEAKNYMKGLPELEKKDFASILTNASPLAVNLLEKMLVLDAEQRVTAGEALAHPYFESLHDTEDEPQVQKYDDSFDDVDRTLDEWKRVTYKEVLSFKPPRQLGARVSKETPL

[5] = biological target: Serine/threonine-protein kinase 32B (Homo sapiens) (UniProt Q9NY57); test: Inhibition of human recombinant YANK2 at 15 nM in presence of ATP by radiometric assay relative to control
[6] = biological target: Tyrosine-protein kinase ABL2 (Homo sapiens) (UniProt P42684); test: Inhibition of human recombinant ABL2 at 15 nM related to control ULK1
[7] = biological target: T2, Dual specificity tyrosine-phosphorylation-regulated kinase 3 (Homo sapiens) (UniProt O43781); test: Inhibition of human recombinant DYRK3 at 40 nM related to control ULK1
T2 sequence (whole entry): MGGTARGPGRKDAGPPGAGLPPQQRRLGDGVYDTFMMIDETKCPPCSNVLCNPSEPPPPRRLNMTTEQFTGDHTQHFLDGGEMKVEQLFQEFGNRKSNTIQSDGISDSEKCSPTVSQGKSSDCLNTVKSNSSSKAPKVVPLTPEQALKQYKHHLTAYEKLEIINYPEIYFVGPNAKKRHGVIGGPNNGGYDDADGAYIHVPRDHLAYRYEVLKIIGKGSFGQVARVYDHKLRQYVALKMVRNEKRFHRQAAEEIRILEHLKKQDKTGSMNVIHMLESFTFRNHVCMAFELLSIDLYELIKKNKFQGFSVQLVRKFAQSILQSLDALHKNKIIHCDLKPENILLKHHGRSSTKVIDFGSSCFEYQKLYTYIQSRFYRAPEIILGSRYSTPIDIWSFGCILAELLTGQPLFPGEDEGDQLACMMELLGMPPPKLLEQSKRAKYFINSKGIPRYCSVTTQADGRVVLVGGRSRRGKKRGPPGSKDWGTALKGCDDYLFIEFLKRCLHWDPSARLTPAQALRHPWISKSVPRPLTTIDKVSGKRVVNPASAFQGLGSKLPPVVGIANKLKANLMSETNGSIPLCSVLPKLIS

[8] = biological target: Vascular endothelial growth factor receptor 2 (Homo sapiens) (UniProt P35968); test: Inhibition of human recombinant KDR at 40 nM related to control ULK1
[9] = biological target: Serine/threonine-protein kinase PAK 2 (Homo sapiens) (UniProt Q13177); test: Inhibition of human recombinant PAK2 at 40 nM related to control ULK1
[10] = biological target: STE20-like serine/threonine-protein kinase (Homo sapiens) (UniProt Q9H2G2); test: Inhibition of human recombinant SLK at 40 nM related to control ULK1
[11] = biological target: T3, Serine/threonine-protein kinase TAO2 (Homo sapiens) (UniProt Q9UL54); test: Inhibition of human recombinant TAO2 at 40 nM related to control ULK1
T3 sequence (whole entry): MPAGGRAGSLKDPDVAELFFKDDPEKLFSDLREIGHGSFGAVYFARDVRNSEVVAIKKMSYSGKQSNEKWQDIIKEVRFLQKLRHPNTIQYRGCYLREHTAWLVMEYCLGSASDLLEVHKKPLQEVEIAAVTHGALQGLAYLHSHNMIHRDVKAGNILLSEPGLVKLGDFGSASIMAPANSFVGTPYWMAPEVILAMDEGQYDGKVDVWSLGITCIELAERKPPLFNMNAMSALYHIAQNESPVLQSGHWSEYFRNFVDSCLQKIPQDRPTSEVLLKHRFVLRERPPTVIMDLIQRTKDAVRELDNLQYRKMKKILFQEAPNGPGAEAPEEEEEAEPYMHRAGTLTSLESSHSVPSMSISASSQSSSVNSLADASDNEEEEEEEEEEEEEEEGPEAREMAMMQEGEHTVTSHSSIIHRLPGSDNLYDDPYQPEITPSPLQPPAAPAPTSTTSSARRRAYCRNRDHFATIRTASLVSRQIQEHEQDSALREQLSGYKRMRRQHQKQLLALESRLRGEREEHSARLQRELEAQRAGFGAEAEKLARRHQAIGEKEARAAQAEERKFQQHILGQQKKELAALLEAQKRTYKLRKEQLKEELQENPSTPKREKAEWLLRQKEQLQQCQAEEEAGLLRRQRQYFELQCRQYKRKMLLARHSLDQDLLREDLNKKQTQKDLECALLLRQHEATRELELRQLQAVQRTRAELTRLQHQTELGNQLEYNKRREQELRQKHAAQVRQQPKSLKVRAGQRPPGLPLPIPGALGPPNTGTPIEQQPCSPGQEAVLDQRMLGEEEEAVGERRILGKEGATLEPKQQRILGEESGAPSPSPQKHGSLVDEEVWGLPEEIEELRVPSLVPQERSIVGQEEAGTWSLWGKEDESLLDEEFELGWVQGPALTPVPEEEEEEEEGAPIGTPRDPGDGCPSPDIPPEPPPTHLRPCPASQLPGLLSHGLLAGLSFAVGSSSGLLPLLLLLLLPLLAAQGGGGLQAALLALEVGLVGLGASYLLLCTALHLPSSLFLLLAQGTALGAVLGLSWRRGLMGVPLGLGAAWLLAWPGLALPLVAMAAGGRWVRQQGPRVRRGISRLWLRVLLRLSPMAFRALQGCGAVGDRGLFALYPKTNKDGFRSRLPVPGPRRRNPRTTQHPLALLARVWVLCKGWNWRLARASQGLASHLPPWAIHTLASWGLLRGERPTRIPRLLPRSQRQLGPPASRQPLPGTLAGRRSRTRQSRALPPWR

[12] = biological target: 3-phosphoinositide-dependent protein kinase 1 (Homo sapiens) (UniProt O15530); test: Inhibition of human recombinant PDK1 at 40 nM in presence of ATP by radiometric assay relative to control
3-phosphoinositide-dependent protein kinase 1 (Homo sapiens), sequence (O15530 whole entry, looked up): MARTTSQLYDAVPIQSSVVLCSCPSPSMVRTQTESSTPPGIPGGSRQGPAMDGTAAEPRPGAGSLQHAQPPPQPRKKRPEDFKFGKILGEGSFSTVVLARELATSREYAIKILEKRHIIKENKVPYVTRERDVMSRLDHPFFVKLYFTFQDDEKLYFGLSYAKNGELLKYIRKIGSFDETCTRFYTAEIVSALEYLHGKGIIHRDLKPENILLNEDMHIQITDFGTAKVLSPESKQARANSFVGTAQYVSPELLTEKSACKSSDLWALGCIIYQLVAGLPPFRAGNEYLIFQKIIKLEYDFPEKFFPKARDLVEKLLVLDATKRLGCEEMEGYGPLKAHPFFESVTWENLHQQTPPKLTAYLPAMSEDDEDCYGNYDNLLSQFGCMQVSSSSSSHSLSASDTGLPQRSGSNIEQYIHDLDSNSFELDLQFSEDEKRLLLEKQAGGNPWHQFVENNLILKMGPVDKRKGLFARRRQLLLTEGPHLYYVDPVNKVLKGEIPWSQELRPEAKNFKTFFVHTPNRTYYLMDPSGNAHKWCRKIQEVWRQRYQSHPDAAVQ

Tyrosine-protein kinase ABL2 (Homo sapiens), sequence (P42684 whole entry): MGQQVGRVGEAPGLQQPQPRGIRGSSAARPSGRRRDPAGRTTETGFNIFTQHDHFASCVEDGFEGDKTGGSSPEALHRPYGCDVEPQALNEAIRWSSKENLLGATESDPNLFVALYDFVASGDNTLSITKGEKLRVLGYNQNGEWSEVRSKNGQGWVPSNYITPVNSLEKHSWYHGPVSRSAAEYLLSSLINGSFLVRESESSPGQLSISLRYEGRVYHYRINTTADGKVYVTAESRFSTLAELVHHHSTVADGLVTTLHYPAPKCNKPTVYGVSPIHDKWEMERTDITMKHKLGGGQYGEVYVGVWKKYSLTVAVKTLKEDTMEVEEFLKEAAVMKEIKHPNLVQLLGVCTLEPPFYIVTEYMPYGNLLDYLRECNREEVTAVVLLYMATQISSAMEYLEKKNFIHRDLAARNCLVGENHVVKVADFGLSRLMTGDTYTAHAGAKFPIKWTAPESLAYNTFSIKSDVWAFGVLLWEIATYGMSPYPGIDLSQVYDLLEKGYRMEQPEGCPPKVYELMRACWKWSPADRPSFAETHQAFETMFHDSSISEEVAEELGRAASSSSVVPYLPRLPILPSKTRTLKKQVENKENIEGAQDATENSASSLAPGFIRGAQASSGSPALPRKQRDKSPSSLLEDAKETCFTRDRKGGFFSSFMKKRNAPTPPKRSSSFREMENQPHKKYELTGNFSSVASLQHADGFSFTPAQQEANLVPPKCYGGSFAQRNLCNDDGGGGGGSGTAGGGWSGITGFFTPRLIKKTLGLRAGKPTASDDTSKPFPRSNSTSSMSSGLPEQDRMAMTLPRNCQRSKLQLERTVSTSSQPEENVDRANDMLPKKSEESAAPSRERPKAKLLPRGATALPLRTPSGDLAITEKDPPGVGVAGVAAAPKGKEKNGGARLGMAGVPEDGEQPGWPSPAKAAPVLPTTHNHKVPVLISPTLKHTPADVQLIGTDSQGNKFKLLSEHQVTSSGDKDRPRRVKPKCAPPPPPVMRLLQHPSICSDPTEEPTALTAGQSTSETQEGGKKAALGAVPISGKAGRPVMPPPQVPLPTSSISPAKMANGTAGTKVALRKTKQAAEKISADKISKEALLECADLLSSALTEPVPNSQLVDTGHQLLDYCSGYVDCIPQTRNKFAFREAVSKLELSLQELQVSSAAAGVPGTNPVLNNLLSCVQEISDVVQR
Vascular endothelial growth factor receptor 2 (Homo sapiens), sequence (P35968 whole entry): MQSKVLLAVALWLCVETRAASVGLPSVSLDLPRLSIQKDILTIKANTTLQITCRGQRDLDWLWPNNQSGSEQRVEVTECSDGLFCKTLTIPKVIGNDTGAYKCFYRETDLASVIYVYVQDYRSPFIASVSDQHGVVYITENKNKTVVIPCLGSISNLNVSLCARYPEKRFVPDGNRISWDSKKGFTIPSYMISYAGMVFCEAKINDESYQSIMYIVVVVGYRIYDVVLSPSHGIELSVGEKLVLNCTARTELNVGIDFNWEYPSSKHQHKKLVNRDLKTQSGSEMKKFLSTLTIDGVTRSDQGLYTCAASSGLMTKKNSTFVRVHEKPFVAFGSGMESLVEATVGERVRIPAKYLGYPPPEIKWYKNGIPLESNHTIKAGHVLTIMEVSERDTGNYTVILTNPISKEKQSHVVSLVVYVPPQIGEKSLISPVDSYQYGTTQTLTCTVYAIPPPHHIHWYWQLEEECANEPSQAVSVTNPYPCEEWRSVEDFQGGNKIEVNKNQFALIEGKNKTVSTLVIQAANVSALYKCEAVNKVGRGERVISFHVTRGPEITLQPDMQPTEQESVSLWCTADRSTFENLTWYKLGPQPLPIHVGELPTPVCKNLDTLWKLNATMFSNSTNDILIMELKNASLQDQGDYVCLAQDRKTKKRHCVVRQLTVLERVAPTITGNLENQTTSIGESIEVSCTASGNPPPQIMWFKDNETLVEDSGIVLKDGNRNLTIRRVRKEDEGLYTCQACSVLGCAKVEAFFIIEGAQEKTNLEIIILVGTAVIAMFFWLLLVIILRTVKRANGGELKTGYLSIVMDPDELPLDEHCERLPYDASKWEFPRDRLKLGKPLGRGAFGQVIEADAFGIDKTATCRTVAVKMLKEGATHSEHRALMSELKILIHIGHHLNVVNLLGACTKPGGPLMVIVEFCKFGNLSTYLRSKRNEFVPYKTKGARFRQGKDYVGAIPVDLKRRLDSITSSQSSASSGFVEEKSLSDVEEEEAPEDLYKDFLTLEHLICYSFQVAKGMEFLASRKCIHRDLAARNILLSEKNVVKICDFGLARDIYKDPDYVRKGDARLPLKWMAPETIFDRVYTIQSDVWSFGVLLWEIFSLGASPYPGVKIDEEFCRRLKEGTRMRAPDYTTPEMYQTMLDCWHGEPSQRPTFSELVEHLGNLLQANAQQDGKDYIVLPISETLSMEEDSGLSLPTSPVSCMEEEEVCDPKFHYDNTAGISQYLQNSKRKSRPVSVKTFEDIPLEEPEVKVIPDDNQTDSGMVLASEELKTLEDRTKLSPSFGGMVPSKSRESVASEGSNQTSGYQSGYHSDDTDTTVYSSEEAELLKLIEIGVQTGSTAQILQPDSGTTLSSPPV
Serine/threonine-protein kinase 32B (Homo sapiens), sequence (Q9NY57 whole entry): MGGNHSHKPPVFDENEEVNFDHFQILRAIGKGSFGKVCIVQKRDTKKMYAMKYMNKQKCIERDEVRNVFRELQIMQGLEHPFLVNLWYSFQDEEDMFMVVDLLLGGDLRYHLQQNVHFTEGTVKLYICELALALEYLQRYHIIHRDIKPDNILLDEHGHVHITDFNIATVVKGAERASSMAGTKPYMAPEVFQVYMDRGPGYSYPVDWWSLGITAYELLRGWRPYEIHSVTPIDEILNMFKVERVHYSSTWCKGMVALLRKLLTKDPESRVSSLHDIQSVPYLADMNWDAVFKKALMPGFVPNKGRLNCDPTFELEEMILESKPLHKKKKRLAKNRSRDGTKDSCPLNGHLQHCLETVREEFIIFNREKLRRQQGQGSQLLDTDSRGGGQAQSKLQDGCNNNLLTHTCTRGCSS
Proto-oncogene tyrosine-protein kinase Src (Homo sapiens), sequence (P12931 2-536 limits assumed): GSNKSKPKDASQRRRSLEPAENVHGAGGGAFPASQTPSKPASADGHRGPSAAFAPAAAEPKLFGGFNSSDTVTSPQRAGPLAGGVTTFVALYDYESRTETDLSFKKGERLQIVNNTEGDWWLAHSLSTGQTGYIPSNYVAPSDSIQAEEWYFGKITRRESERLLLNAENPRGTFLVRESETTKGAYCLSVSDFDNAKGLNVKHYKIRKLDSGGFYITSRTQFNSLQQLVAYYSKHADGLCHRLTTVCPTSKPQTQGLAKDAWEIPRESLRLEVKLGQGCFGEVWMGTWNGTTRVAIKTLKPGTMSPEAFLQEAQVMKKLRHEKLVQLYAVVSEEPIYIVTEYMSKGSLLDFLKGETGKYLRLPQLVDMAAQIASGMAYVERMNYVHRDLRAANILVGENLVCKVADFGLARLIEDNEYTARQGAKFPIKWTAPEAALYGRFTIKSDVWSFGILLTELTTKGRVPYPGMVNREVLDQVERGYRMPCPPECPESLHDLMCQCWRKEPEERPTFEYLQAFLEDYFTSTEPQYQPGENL
Serine/threonine-protein kinase PAK 2 (Homo sapiens), sequence (Q13177 whole entry): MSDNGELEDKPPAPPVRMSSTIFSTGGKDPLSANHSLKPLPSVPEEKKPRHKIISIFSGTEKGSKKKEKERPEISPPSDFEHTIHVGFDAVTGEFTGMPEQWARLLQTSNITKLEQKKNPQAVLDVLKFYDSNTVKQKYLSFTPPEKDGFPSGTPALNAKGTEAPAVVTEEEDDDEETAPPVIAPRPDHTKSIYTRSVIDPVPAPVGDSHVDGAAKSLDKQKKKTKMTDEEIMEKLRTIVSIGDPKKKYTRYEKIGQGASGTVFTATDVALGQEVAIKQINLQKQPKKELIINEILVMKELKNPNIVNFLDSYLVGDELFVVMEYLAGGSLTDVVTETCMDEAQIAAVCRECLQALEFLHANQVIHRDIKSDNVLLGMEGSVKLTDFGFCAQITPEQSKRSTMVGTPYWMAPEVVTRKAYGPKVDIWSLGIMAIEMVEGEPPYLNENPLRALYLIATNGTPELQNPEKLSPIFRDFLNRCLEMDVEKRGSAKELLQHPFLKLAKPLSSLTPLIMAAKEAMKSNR
MAP kinase-activated protein kinase 3 (Homo sapiens), sequence (Q16644 whole entry, looked up): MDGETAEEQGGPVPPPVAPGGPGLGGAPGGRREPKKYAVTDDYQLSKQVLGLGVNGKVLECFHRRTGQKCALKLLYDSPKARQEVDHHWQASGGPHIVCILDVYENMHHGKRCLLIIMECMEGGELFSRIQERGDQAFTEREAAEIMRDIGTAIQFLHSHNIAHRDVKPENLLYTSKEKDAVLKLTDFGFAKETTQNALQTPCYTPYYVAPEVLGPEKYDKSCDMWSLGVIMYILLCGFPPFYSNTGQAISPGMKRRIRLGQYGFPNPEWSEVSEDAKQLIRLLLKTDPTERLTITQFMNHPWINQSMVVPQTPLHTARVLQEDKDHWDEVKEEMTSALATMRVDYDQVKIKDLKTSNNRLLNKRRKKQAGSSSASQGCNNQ

For `CNC(=O)c1ccccc1Oc1nc(Nc2cc(OC)c(OC)c(OC)c2)ncc1Br`, the inhibition [1] was 19%, the inhibition [2] was 16% and the fold change (FC) [3] was 0. For the same compound, the fold change (FC) [4] was 0.
`CC(C)[C@H](NC(=O)c1cc(-c2cnn3cc(-c4ccc(OCCN5CCCCC5)cc4)cnc23)cs1)C(F)(F)F` showed an inhibition [5] of 0% and a fold change (FC) [6] of 0.48.
`O=C(N[C@@H](C1CC1)C(F)(F)F)c1cc(-c2cnn3cc(-c4ccc(F)cc4)cnc23)cs1` was tested, and the fold change (FC) [7] was 0.41, the fold change (FC) [8] was 0.07 and the fold change (FC) [9] was 0. The fold change (FC) [10] was 0, the fold change (FC) [11] was 0.04 and the inhibition [12] was 0%.
